Target: T1, human PDE10A2 (Homo sapiens, UniProt Q9Y233)
T1 construct: made in house; host or cells: AD293 cells, transiently transfected; The cytosolic supernatant of the lysate served as the enzyme
Assay: PDE10 fluorescence polarization (IMAP FP) inhibition assay
Type: biochemical
Details: apparent inhibition constant; FAM-labeled cAMP 50 nM; lysate of AD293 cells transfected with human PDE10A2; room temperature; read-out: PDE10a Ki
Protocol: The activity of the compounds in accordance with the present invention as PDE10 inhibitors may be readily determined without undue experimentation using a fluorescence polarization (FP) methodology that is well known in the art (Huang, W., et al., J. Biomol Screen, 2002, 7: 215).
In a typical experiment the PDE 10 inhibitory activity of the compounds of the present invention was determined in accordance with the following experimental method. PDE 10A2 was amplified from human fetal brain cDNA (Clontech, Mountain View, Calif.) using a forward primer corresponding to nucleotides 56-77 of human PDE10A2 (Accession No. AF127480, Genbank Identifier 4894716), containing a Kozak consensus sequence, and a reverse primer corresponding to nucleotides 2406-2413 of human PDE10A2 (Accession No. AF127480, Genbank Identifier 4894716). Amplification with Easy-A polymerase (Stratagene, La Jolla, Calif.) was 95° C. for 2 minutes followed by thirty three cycles of 95° C. for 40 seconds, 55° C. for 30 seconds, and 72° C. for 2 minutes 48 seconds. Final extension was 72° C. for 7 minutes. The PCR product was TA cloned into pcDNA3.2-TOPO (Invitrogen, Carlsbad, Calif.) according to standard protocol. AD293 cells with 70-80% confluency were transiently transfected with human PDE10A2/pcDNA3.2-TOPO using Lipofectamine 2000 according to manufacturer specifications (Invitrogen, Carlsbad, Calif.). Cells were harvested 48 hours post-transfection and lysed by sonication (setting 3, 10×5 sec pulses) in a buffer containing 20 mM HEPES, 1 mM EDTA and protease inhibitor cocktail (Roche). Lysate was collected by centrifugation at 75,000×g for 20 minutes. Supernatant containing the cytoplasmic fraction was used for evaluation of PDE10A2 activity. The fluorescence polarization assay for cyclic nucleotide phosphodiesterases was performed using an IMAP® FP kit supplied by Molecular Devices, Sunnyvale, Calif. (product # R8139). IMAP® technology has been applied previously to phosphodiesterase assays (Huang, W., et al., J. Biomol Screen, 2002, 7: 215). Assays were performed at room temperature in 384-well microtiter plates with an incubation volume of 20.2 μL. Solutions of test compounds were prepared in DMSO and serially diluted with DMSO to yield 8 μL of each of 10 solutions differing by 3-fold in concentration, at 32 serial dilutions per plate. 100% inhibition is determined using a known PDE 10 inhibitor, which can be any compound that is present at 5,000 times its Ki value in the assay described as follows, such as papaverine (see Siuciak, et al. Neuropharmacology (2006) 51:386-396; Becker, et al. Behav Brain Res (2008) 186(2):155-60; Threlfell, et al., J Pharmacol Exp Ther (2009) 328(3):785-795), 2-{4-[pyridin-4-yl-1-(2,2,2-trifluoroethyl)-1H-pyrazol-3-yl]phenoxymethyl}quinoline succinic acid or 2-[4-(1-methyl-4-pyridin-4-yl-1H-pyrazol-3-yl)-phenoxymethyl]quinoline succinic acid (see Schmidt, et al. J Pharmacol Exp Ther (2008) 325:681-690; Threlfell, et al., J Pharmacol Exp Ther (2009) 328(3): 785-795). 0% of inhibition is determined by using DMSO (1% final concentrations). A Labcyte Echo 555 (Labcyte, Sunnyvale, Calif.) is used to dispense 200 nL from each well of the titration plate to the 384 well assay plate. A solution of enzyme ( 1/7000 dilution from aliquots; sufficient to produce 20% substrate conversion) and a separate solution of FAM-labeled cAMP PDE from Molecular Devices (product # R7506), at a final concentration of 50 nM are made in the assay buffer (10 mM Tris HCl, pH 7.2, 10 mM MgCl2, 0.05% NaN3 0.01% Tween-20, and 1 mM DTT). The enzyme is added to the assay plates by the addition of 10 μL of enzyme solution to each well, shaken to mix and incubated at room temperature for 60 minutes. The substrate is then added to the assay plates by the addition of 10 μL of substrate solution to each well, shaken to mix, and incubated at room temperature for 60 minutes. […]

T1 sequence (Q9Y233 267-1055): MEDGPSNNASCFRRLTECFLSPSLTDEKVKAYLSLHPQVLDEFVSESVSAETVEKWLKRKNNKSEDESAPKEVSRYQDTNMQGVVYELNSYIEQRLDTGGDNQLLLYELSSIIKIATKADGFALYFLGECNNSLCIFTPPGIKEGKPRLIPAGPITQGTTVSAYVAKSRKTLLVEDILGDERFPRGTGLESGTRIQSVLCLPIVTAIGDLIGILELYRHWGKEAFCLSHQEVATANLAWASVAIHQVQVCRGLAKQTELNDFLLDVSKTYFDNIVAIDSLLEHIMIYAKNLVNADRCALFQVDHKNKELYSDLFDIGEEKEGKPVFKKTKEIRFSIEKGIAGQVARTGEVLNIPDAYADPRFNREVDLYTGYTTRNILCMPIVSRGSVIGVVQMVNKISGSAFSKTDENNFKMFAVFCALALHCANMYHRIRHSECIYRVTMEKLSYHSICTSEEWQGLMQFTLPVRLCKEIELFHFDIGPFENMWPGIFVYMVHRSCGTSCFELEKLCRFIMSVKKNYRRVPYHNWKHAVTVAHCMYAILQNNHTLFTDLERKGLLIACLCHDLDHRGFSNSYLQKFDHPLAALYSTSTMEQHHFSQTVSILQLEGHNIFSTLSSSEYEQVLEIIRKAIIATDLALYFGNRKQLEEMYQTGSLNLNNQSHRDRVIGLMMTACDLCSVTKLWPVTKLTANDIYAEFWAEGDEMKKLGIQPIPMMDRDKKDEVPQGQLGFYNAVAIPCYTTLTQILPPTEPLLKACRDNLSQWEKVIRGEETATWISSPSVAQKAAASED

| Ki [nM] | SMILES |
| --- | --- |
| 220 | COc1ccc(Cc2nc(N)nn2-c2cc(=O)n(CC3(c4ccccc4)CC3(F)F)cn2)cc1OC (stereo not shown) [1-59, 6-(3-amino-5-(3,4-dimethoxybenzyl)-1H-1,2,4-triazol-1-yl)-3-((2,2-difluoro-1-phenylcyclopropyl)methyl)pyrimidin-4(3H)-one] |
| 370 | COc1ccc(Cc2nc(N)nn2-c2cc(OC(C)C)ncn2)cc1OC [1-60, 5-(3,4-dimethoxybenzyl)-1-(6-isopropoxypyrimidin-4-yl)-1H-1,2,4-triazol-3-amine] |
| 19 | COc1ccc(Cc2nc(N)nn2-c2cc(OC3CCCCC3)ncn2)cc1OC [1-61, 1-(6-(cyclohexyloxy)pyrimidin-4-yl)-5-(3,4-dimethoxybenzyl)-1H-1,2,4-triazol-3-amine] |
| 8.6 | COc1ccc(Cc2nc(N)nn2-c2cc(OCC3CCC3)ncn2)cc1OC [1-62, 1-(6-(cyclobutylmethoxy)pyrimidin-4-yl)-5-(3,4-dimethoxybenzyl)-1H-1,2,4-triazol-3-amine] |
| 35 | CCCOc1cc(-n2nc(N)nc2Cc2ccc(OC)c(OC)c2)ncn1 [1-63, 5-(3,4-dimethoxybenzyl)-1-(6-propoxypyrimidin-4-yl)-1H-1,2,4-triazol-3-amine] |
| 13 | COc1ccc(Cc2nc(N)nn2-c2cc(OCC(C)(C)C)ncn2)cc1OC [1-64, 5-(3,4-dimethoxybenzyl)-1-(6-(neopentyloxy)pyrimidin-4-yl)-1H-1,2,4-triazol-3-amine] |
| 320 | COc1ccc(Cc2nc(N)nn2-c2cc(OCC3CC3c3ccccc3)ncn2)cc1OC (stereo not shown) [1-67, 5-(3,4-dimethoxybenzyl)-1-(6-((2-phenylcyclopropyl)methoxy)pyrimidin-4-yl)-1H-1,2,4-triazol-3-amine] |
| 760 | COc1ccc(Cc2nc(N)nn2-c2cc(OCc3ccc4ccccc4n3)ncn2)cc1OC [1-68, 5-(3,4-dimethoxybenzyl)-1-(6-(quinolin-2-ylmethoxy)pyrimidin-4-yl)-1H-1,2,4-triazol-3-amine] |
| 540 | COc1ccc(Cc2nc(N)nn2-c2cc(=O)n(C(C)C)cn2)cc1OC [1-69, 6-(3-amino-5-(3,4-dimethoxybenzyl)-1H-1,2,4-triazol-1-yl)-3-isopropylpyrimidin-4(3H)-one] |
| 640 | COc1ccc(Cc2nc(N)nn2-c2cc(=O)n(CC3CCC3)cn2)cc1OC [1-70, 6-(3-amino-5-(3,4-dimethoxybenzyl)-1H-1,2,4-triazol-1-yl)-3-(cyclobutylmethyl)pyrimidin-4(3H)-one] |
| 620 | CCCn1cnc(-n2nc(N)nc2Cc2ccc(OC)c(OC)c2)cc1=O [1-71, 6-(3-amino-5-(3,4-dimethoxybenzyl)-1H-1,2,4-triazol-1-yl)-3-propylpyrimidin-4(3H)-one] |
| < 3.8 | COc1ccc(Cc2nc(N)nn2-c2cc(=O)n(Cc3nc4ccccc4s3)cn2)cc1OC [1-73, 6-(3-amino-5-(3,4-dimethoxybenzyl)-1H-1,2,4-triazol-1-yl)-3-(benzo[d]thiazol-2-ylmethyl)pyrimidin-4(3H)-one] |
| 64 | COc1ccc(Cc2nc(N)nn2-c2cc(=O)n(Cc3ccc4ccccc4n3)cn2)cc1OC [1-75, 6-(3-amino-5-(3,4-dimethoxybenzyl)-1H-1,2,4-triazol-1-yl)-3-(quinolin-2-ylmethyl)pyrimidin-4(3H)-one] |
| < 3.8 | COc1ccc(CNc2nc(Cc3ccc(OC)c(OC)c3)n(-c3cc(Oc4ccccn4)nc(C)n3)n2)cc1 [1-76, 5-(3,4-dimethoxybenzyl)-N-(4-methoxybenzyl)-1-(2-methyl-6-(pyridin-2-yloxy)pyrimidin-4-yl)-1H 1,2,4-triazol-3-amine] |
| 1000 | COc1ccc(CNc2nc(Cc3ccc(OC)c(OC)c3)n(-c3cc(Oc4cccnc4)nc(C)n3)n2)cc1 [1-77, 5-(3,4-dimethoxybenzyl)-N-(4-methoxybenzyl)-1-(2-methyl-6-(pyridin-3-yloxy)pyrimidin-4-yl)-1H-1,2,4-triazol-3-amine] |
| 130 | COc1ccc(Cc2nc(N)nn2-c2cc(Oc3cccnc3)nc(C)n2)cc1OC [1-79, 5-(3,4-dimethoxybenzyl)-1-(2-methyl-6-(pyridin-3-yloxy)pyrimidin-4-yl)-1H-1,2,4-triazol-3-amine] |
| 490 | COc1ccc(CNc2nc(Cc3ccc(OC)c(OC)c3)n(-c3cc(Oc4ccccn4)nc(C)n3)n2)cc1 [1-80, 5-(3,4-dimethoxybenzyl)-N-(4-methoxybenzyl)-1-(2-methyl-6-(pyridin-2-yloxy)pyrimidin-4-yl)-1H-1,2,4-triazol-3-amine] |
| 47 | COc1ccc(Cc2nc(N)nn2-c2cc(Oc3ccc4ccccc4n3)nc(C)n2)cc1OC [1-83, 3-amino-5-(3,4-dimethoxybenzyl)-1-(2-methyl-6-(quinolin-2-yloxy)pyrimidin-4-yl)-1H-1,2,4-triazole-2,4-diium] |
| 19 | COc1ccc(CNc2nc(Cc3ccc(OC)c(OC)c3)n(-c3cc(C#Cc4ccccn4)nc(C)n3)n2)cc1 [1-84, 5-(3,4-dimethoxybenzyl)-N-(4-methoxybenzyl)-1-(2-methyl-6-(pyridin-2-ylethynyl)pyrimidin-4-yl)-1H-1,2,4-triazol-3-amine] |
